Measured values: the Kinase Knowledgebase extract (Sharma et al. 2016)

Target: EGFR (human) (UniProt P00533)
Sequence (P00533 whole entry, looked up): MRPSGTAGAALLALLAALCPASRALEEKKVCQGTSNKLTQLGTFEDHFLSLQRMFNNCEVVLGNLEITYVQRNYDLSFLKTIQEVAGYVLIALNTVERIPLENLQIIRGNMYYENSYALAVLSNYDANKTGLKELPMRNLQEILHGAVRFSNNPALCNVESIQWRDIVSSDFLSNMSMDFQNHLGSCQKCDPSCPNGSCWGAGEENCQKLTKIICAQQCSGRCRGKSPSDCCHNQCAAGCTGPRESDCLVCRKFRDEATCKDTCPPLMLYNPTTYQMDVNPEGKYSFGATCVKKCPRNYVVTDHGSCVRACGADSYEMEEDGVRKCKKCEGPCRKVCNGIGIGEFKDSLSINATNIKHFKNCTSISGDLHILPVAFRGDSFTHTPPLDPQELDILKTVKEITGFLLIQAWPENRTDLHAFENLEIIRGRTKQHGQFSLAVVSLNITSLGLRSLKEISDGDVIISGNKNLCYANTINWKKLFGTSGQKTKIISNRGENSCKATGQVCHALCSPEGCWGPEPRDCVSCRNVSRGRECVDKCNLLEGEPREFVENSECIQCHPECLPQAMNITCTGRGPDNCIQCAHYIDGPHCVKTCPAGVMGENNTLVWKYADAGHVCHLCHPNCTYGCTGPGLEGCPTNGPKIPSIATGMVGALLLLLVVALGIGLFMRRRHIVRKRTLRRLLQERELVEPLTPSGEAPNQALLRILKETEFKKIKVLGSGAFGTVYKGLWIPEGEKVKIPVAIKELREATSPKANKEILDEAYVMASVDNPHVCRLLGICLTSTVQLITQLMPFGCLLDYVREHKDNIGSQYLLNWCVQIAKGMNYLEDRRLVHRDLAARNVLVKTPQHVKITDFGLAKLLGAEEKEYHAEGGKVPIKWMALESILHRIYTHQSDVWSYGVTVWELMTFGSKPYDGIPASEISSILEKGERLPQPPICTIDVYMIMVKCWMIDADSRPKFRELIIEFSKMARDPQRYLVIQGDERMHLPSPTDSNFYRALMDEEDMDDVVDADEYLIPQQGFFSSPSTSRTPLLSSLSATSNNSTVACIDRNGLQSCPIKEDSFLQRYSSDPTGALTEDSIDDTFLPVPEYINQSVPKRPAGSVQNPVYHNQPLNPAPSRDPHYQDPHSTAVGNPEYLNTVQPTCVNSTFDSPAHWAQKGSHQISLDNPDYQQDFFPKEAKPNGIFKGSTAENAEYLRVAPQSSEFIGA

IC50 | SMILES
100 to 1000 nM | CC#CC(=O)N[C@H]1CC[C@H](n2nc(-c3ccc(C(=O)Nc4cc(C(F)(F)F)ccn4)cc3)c3c(N)ncnc32)CC1
< 1 nM | CN(C/C=C/C(=O)N1CC[C@@H](n2nc(-c3ccc(C(=O)Nc4nccs4)cc3)c3c(N)ncnc32)C1)C1CC1
100 to 1000 nM | CN(C/C=C/C(=O)N1CC[C@@H](n2nc(-c3ccc(C(=O)Nc4ccccn4)cc3)c3c(N)ncnc32)C1)C1CC1
100 to 1000 nM | CNC/C=C/C(=O)N1CC[C@@H](n2nc(-c3ccc(C(=O)Nc4cc(C)ccn4)cc3)c3c(N)ncnc32)C1
> 10 nM | CN(C/C=C/C(=O)N1CC[C@@H](n2nc(-c3ccc(C(=O)Nc4ncco4)cc3)c3c(N)ncnc32)C1)C1CC1
100 to 1000 nM | CN(C/C=C/C(=O)N1CC[C@@H](n2nc(-c3ccc(C(=O)Nc4cc(C(F)(F)F)ccn4)cc3)c3c(N)ncnc32)C1)C1CC1
100 to 1000 nM | Cc1ccnc(NC(=O)c2ccc(-c3nn([C@@H]4CCN(C(=O)/C=C/CNC5CC5)C4)c4ncnc(N)c34)cc2)c1
100 to 1000 nM | CCCc1ccnc(NC(=O)c2ccc(-c3nn([C@@H]4CCN(C(=O)/C=C/CN(C)C5CC5)C4)c4ncnc(N)c34)cc2)c1
100 to 1000 nM | CC(C)c1cnc(NC(=O)c2ccc(-c3nn([C@@H]4CCN(C(=O)/C=C/CN(C)C5CC5)C4)c4ncnc(N)c34)cc2)s1
100 to 1000 nM | Cc1ccnc(NC(=O)c2ccc(-c3nn([C@H]4CC[C@H](NC(=O)/C=C/CN(C)C)CC4)c4ncnc(N)c34)cc2)c1
1 to 100 nM | CN(C/C=C/C(=O)N1CC[C@@H](n2nc(-c3ccc(C(=O)Nc4ncc(C#N)s4)cc3)c3c(N)ncnc32)C1)C1CC1
1 to 100 nM | Nc1ncnc2c1c(-c1ccc(C(=O)Nc3cc(C(F)(F)F)ccn3)cc1)nn2[C@@H]1CCN(C(=O)/C=C/CNC2CC2)C1
100 to 1000 nM | CN(C/C=C/C(=O)N1CC[C@@H](n2nc(-c3ccc(C(=O)Nc4ncc(C(F)(F)F)s4)cc3)c3c(N)ncnc32)C1)C1CC1
100 to 1000 nM | CN(C)C/C=C/C(=O)N1CC[C@@H](n2nc(-c3ccc(C(=O)Nc4cc(C#N)ccn4)cc3)c3c(N)ncnc32)C1
< 1 nM | CN(C/C=C/C(=O)N1CC[C@@H](n2nc(-c3ccc(C(=O)Nc4ncc(C5CC5)s4)cc3)c3c(N)ncnc32)C1)C1CC1
100 to 1000 nM | CCc1cnc(NC(=O)c2ccc(-c3nn([C@@H]4CCN(C(=O)/C=C/CN(C)C5CC5)C4)c4ncnc(N)c34)cc2)s1
100 to 1000 nM | CCCc1cnc(NC(=O)c2ccc(-c3nn([C@@H]4CCN(C(=O)/C=C/CN(C)C5CC5)C4)c4ncnc(N)c34)cc2)s1
100 to 1000 nM | Cc1ccnc(NC(=O)c2ccc(-c3nn([C@H]4CC[C@H](NC(=O)/C=C/CN(C)C5CC5)CC4)c4ncnc(N)c34)cc2)c1
100 to 1000 nM | CN(C)C/C=C/C(=O)N1CC[C@@H](n2nc(-c3ccc(C(=O)Nc4ccccn4)cc3)c3c(N)ncnc32)C1
100 to 1000 nM | CN(C/C=C/C(=O)N[C@H]1CC[C@H](n2nc(-c3ccc(C(=O)Nc4cc(C(F)(F)F)ccn4)cc3)c3c(N)ncnc32)CC1)C1CC1
1 to 100 nM | CNC/C=C/C(=O)N1CC[C@@H](n2nc(-c3ccc(C(=O)Nc4cc(C(F)(F)F)ccn4)cc3)c3c(N)ncnc32)C1
100 to 1000 nM | CC(C)c1ccnc(NC(=O)c2ccc(-c3nn([C@@H]4CCN(C(=O)/C=C/CN(C)C)C4)c4ncnc(N)c34)cc2)c1
100 to 1000 nM | CN(C)C/C=C/C(=O)N1CC[C@@H](n2nc(-c3ccc(C(=O)Nc4cc(C(F)(F)F)ccn4)cc3)c3c(N)ncnc32)C1
